Laboratory results reported in article PMC6516043, “Functional Analysis of the Chemosensory Protein GmolCSP8 From the Oriental Fruit Moth, Grapholita molesta (Busck) (Lepidoptera: Tortricidae)” (Frontiers in Physiology, 2019).
Read-outs that look alike come from different tables or passages of the source.

Tests used:
rGmolCSP8 = rGmolCSP8 (Grapholita molesta, UniProt A0A0M4FML8); test: Fluorescence competitive binding assay (1-NPN displacement), wild-type
Description: The fluorescence spectra were recorded using a fluorescence spectrophotometer (F-4500, Hitachi, Tokyo, Japan) in a 1 cm light path fluorimeter quartz cuvette with 10 nm slits for excitation and 20 nm slits for emission. […] The fluorescent probe N-phenyl-1-naphthylamine (1-NPN) and all putative ligands used in binding assays were dissolved in methanol (HPLC purity grade) to obtain a 1 mM stock solution. The rGmolCSP8 protein was diluted to in 20 mM Tris–HCl to obtain a 2 μM solution, pH 7.4. […] The fluorescent probe was excited at 337 nm and emission spectra were recorded from 370 to 550 nm. […] Binding data were obtained from three replicates assays for each concentration of each tested ligand.

GmolGOBP2 = biological target: GmolGOBP2; design: method as in Li et al., 2016a,b; settings: ref Li et al., 2016a,b; cited from earlier work
GmolOBP15 = biological target: GmolOBP15; design: method as in Li et al., 2016a,b; settings: ref Li et al., 2016a,b; cited from earlier work
GmolOBP8 = biological target: GmolOBP8; design: method as in Li et al., 2016a,b; settings: ref Li et al., 2016a,b; cited from earlier work
GmolCSP8-L30A = GmolCSP8-L30A (Grapholita molesta, UniProt A0A0M4FML8, L45A); test: biochemical; assay type: binding
Description: (§1) To determine whether GmolCSP8 is involved in odorant binding, fluorescence competitive binding assays were performed ([Zhong et al., 2012]). The fluorescence spectra were recorded using a fluorescence spectrophotometer (F-4500, Hitachi, Tokyo, Japan) in a 1 cm light path fluorimeter quartz cuvette with 10 nm slits for excitation and 20 nm slits for emission. The selected chemicals are listed in Table 2, and included four sex pheromone components and 34 volatiles from different host plants (peach and pear trees) of G. molesta based on previous investigations ([Natale et al., 2004]; [Lu et al., 2012]; [Najar-Rodriguez et al., 2013b]). The fluorescent probe N-phenyl-1-naphthylamine (1-NPN) and all putative ligands used in binding assays were dissolved in methanol (HPLC purity grade) to obtain a 1 mM stock solution. The rGmolCSP8 protein was diluted to in 20 mM Tris–HCl to obtain a 2 μM solution, pH 7.4. To measure the binding affinity of 1-NPN for GmolCSP8, a 2 μM solution of protein was titrated with aliquots of 1 mM 1-NPN prepared to final concentrations ranging from 1 to 22 μM. The fluorescent probe was excited at 337 nm and emission spectra were recorded from 370 to 550 nm. […] Binding data were obtained from three replicates assays for each concentration of each tested ligand. Dissociation constants (Kd) of protein to 1-NPN were calculated by non-linear regression, using GraphPad Prism 4.00 software (GraphPad Software Inc.). The inhibition constants (Ki) of the competitors were determined using the corresponding IC50 values (concentration of competitor that reduced the initial fluorescence intensity by half) based on the following equation: Ki = [IC50]/(1+[1-NPN]/K1-NPN), where [1-NPN] is the free concentration of 1-NPN and K1-NPN is the dissociation constant of the complex GmolCSP8/1-NPN.
(§2) To verify the four predicted key amino acid sites of GmolCSP8 binding for 1-hexanol, recombinant plasmids for four CSP8 mutants were obtained via site-directed mutagenesis experiments. Specific primers introducing mutation sites of the four key amino acid CSP8 plasmids (GmolCSP8-T27A, GmolCSP8-L30A, GmolCSP8-V40A, and GmolCSP8-L80A) were designed and are listed in Table 1. The four mutants were mutated by using the TaKaRa MutanBEST Kit (TaKaRa, Shiga, Japan) with the pMD®19-T/GmolCSP8 plasmid DNA as template. All plasmids containing mutations were validated by sequencing with five randomly selected single colonies. pMD®19-T plasmids including four CSP8 mutants were digested with Bam HI and Hind III restriction enzymes. Then, the target sequences were ligated into the expression vector pET28a (+) and transformed into BL21 (DE3) competent cells for expression. After sequencing verification, the corresponding rGmolCSP8 mutant proteins were induced and purified, and the binding affinities to 1-hexanol and its analogs were verified via ligand-binding assays according to the method described above.

GmolCSP8-T27A = GmolCSP8-T27A (Grapholita molesta, UniProt A0A0M4FML8, T42A); test: biochemical; assay type: binding; settings: for fold decrease in binding vs wild-type: mutant T27A compared with wild-type rGmolCSP8
Description: as §1, §2

GmolCSP8-L80A = GmolCSP8-L80A (Grapholita molesta, UniProt A0A0M4FML8, L95A); test: biochemical; assay type: binding
Description: as §1, §2

GmolCSP8-V40A = GmolCSP8-V40A (Grapholita molesta, UniProt A0A0M4FML8, V55A); test: biochemical; assay type: binding
Description: as §1, §2

[1] = 2 μM rGmolCSP8 and 2 μM 1-NPN, 20 mM Tris-HCl pH 7.4, read-out: IC50
[2] = 2 μM rGmolCSP8 and 2 μM 1-NPN, pH 7.4, calculated from IC50, read-out: Ki
[3] = mutant L30A compared with wild-type
[4] = read-out: Ki (μM) L30A; mutant L30A; – = lost ability to bind

Chain of rGmolCSP8 (A0A0M4FML8 entry or part of it): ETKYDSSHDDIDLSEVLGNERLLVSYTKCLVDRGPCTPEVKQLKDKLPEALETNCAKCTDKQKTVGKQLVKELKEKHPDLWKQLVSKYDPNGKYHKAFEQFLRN
Chain of GmolCSP8-L80A (A0A0M4FML8 entry or part of it L95A): as the sequence (A0A0M4FML8 entry or part of it) above, with L80A counted along it
Chain of GmolCSP8-V40A (A0A0M4FML8 entry or part of it V55A): as the sequence (A0A0M4FML8 entry or part of it) above, with V40A counted along it
Chain of GmolCSP8-L30A (A0A0M4FML8 entry or part of it L45A): as the sequence (A0A0M4FML8 entry or part of it) above, with L30A counted along it
Chain of GmolCSP8-T27A (A0A0M4FML8 entry or part of it T42A): as the sequence (A0A0M4FML8 entry or part of it) above, with T27A counted along it

CCCCCCCCCC [Decane]
IC50 (rGmolCSP8; [1]): > 24 µM
Ki (rGmolCSP8; [2]): > 24 µM

CCCCOC(C)=O [Butyl acetate]
IC50 (rGmolCSP8): > 24 µM
Ki (rGmolCSP8): > 24 µM

O=Cc1ccccc1 [Benzaldehyde]
IC50 (rGmolCSP8): > 24 µM
Ki (rGmolCSP8): > 24 µM
binding to rGmolCSP8 (in words) (rGmolCSP8; wild-type rGmolCSP8, pH 7.4): cannot bind

CCCCCCCCCCCCO [1-dodecanol]
IC50 (rGmolCSP8; [1]): 13.5 ± 0.83 µM
Ki (rGmolCSP8; [2]): 12.9 ± 0.56 µM
binding affinity class (strong/medium/weak) (rGmolCSP8; wild-type rGmolCSP8, pH 7.4): medium (an IC50 value between 10 and 20 μM indicated that ligands demonstrated medium binding ability to protein)
Ki (GmolGOBP2): 1.22 µM
Ki (GmolOBP15): 3.24 µM
Ki (GmolOBP8): 4.39 µM

C=C/C(C)=C/CCC(=C)C [α-Ocimene]
IC50 (rGmolCSP8; [1]): 18.9 ± 1.29 µM
Ki (rGmolCSP8; [2]): 17.6 ± 0.81 µM

CCC/C=C/C=O [(E)-2-hexenal]
IC50 (rGmolCSP8; [1]): > 24 µM
Ki (rGmolCSP8; [2]): > 24 µM
binding to rGmolCSP8 (in words) (rGmolCSP8; wild-type rGmolCSP8, pH 7.4): cannot bind

CC/C=C\CCO [Cis-3-hexen-1-ol]
IC50 (rGmolCSP8; [1]): 9.14 ± 0.73 µM
Ki (rGmolCSP8; [2]): 8.51 ± 0.68 µM

CCCCCO [1-pentanol]
IC50 (rGmolCSP8; [1]): 8.79 ± 0.99 µM
Ki (rGmolCSP8; [2]): 8.18 ± 0.93 µM
binding to mutant L30A (in words) (GmolCSP8-L30A; [3]): lost its ability to bind
Ki (GmolCSP8-L30A; [4]): > 24 µM
IC50 (GmolCSP8-T27A): > 24 µM
Ki (GmolCSP8-T27A; read-out: Ki (μM) T27A, mutant T27A, – = did not displace 50% 1-NPN at ligand up to 24 μM): > 24 µM
Ki (GmolCSP8-L80A): 6.66 ± 0.64 µM
Ki (GmolCSP8-V40A): 12.4 ± 1.41 µM

CCCCO [1-butanol]
IC50 (rGmolCSP8; [1]): 7.32 ± 0.56 µM
Ki (rGmolCSP8; [2]): 6.65 ± 0.52 µM
Ki (rGmolCSP8; Table 3, wild-type rGmolCSP8, read-out: Ki (μM) Wild-Type): 6.65 ± 0.52 µM
Ki (GmolCSP8-L30A; mutant L30A; – = lost ability to bind; read-out: Ki (μM) L30A): 17.1 ± 1.05 µM
IC50 (GmolCSP8-T27A; mutant T27A, ligands up to 24 μM, read-out: ligand concentration displacing 50% 1-NPN from CSP8-T27A/1-NPN complex): > 24 µM
Ki (GmolCSP8-T27A; mutant T27A, – = did not displace 50% 1-NPN at ligand up to 24 μM, read-out: Ki (μM) T27A): > 24 µM
Ki (GmolCSP8-L80A; mutant L80A, read-out: Ki (μM) L80A): 6.75 ± 0.57 µM
Ki (GmolCSP8-V40A; mutant V40A, read-out: Ki (μM) V40A): 8.07 ± 0.61 µM

CCCCCC=O [Hexanal]
IC50 (rGmolCSP8; [1]): > 24 µM
Ki (rGmolCSP8; [2]): > 24 µM
binding to rGmolCSP8 (in words) (rGmolCSP8; wild-type rGmolCSP8, pH 7.4): cannot bind

CCCCCCCC=O [Octanal]
IC50 (rGmolCSP8; [1]): > 24 µM
Ki (rGmolCSP8; [2]): > 24 µM

CCCCCCCCC=O [Nonanal]
IC50 (rGmolCSP8; [1]): > 24 µM
Ki (rGmolCSP8; [2]): > 24 µM

CC/C=C\CCOC(C)=O [Cis-3-hexenyl acetate]
IC50 (rGmolCSP8; [1]): > 24 µM
Ki (rGmolCSP8; [2]): > 24 µM
binding to rGmolCSP8 (in words) (rGmolCSP8; wild-type rGmolCSP8, pH 7.4): cannot bind

CCCCOC(=O)CCC [Butyl butyrate]
IC50 (rGmolCSP8; [1]): > 24 µM
Ki (rGmolCSP8; [2]): > 24 µM

CCCCCCCCCCO [1-decanol]
IC50 (rGmolCSP8; [1]): 7.16 ± 0.58 µM
Ki (rGmolCSP8; [2]): 6.6 ± 0.54 µM
binding to mutant L30A (in words) (GmolCSP8-L30A; [3]): lost its ability to bind
Ki (GmolCSP8-L30A; [4]): > 24 µM
Ki (GmolCSP8-T27A): 12.7 ± 1.79 µM
fold decrease in binding vs wild-type (GmolCSP8-T27A): 1.5- to 2.0 fold
Ki (GmolCSP8-L80A): 6.32 ± 0.65 µM
Ki (GmolCSP8-V40A): 7.02 ± 0.47 µM

CCCCCCCO [1-heptanol]
IC50 (rGmolCSP8; [1]): 6.79 ± 0.56 µM
Ki (rGmolCSP8; [2]): 6.2 ± 0.42 µM
binding to mutant L30A (in words) (GmolCSP8-L30A; [3]): lost its ability to bind
Ki (GmolCSP8-L30A; [4]): > 24 µM
Ki (GmolCSP8-T27A): 9.01 ± 0.9 µM
fold decrease in binding vs wild-type (GmolCSP8-T27A): 1.5- to 2.0 fold
Ki (GmolCSP8-L80A): 6.02 ± 0.66 µM
Ki (GmolCSP8-V40A): 9.68 ± 0.75 µM

CCCCCCC(=O)OCC [Ethyl heptanoate]
IC50 (rGmolCSP8; [1]): > 24 µM
Ki (rGmolCSP8; [2]): > 24 µM

CCC/C=C/CCCCCCCOC(C)=O [(E)-8-dodecenyl acetate]
IC50 (rGmolCSP8; [1]): > 24 µM
Ki (rGmolCSP8; [2]): > 24 µM

CCCCCC(=O)OCC [Ethyl hexanoate]
IC50 (rGmolCSP8; [1]): > 24 µM
Ki (rGmolCSP8; [2]): > 24 µM
